Assay results: PubChem BioAssay (NCI)
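A five-concentration, 48-hour dose response in 96-well plates underlies each endpoint, interpolated linearly between surrounding concentrations. The concentration for 50% growth inhibition is given as GI50. Definition used: TGI = concentration required for complete inhibition of growth.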

Tests used:
Assay in all cases: NCI-60 cell line screen, 48 h
786-0 renal = system: 786-0 renal
HCT-116 colon = system: HCT-116 colon
K-562 leukemia = system: K-562 leukemia
M14 melanoma = system: M14 melanoma
NCI-H226 lung = system: NCI-H226 lung
NCI-H522 lung = system: NCI-H522 lung
OVCAR-3 ovarian = system: OVCAR-3 ovarian
CAKI-1 renal = system: CAKI-1 renal
HS 578T breast = system: HS 578T breast
PC-3 prostate = system: PC-3 prostate

Structure (SMILES) | TGI (786-0 renal) [µM] | TGI (HCT-116 colon) [µM] | TGI (K-562 leukemia) [µM] | TGI (M14 melanoma) [µM] | TGI (NCI-H226 lung) [µM] | TGI (NCI-H522 lung) [µM] | TGI (OVCAR-3 ovarian) [µM] | TGI (CAKI-1 renal) [µM] | TGI (HS 578T breast) [µM] | TGI (PC-3 prostate) [µM] | GI50 (786-0 renal) [µM] | GI50 (CAKI-1 renal) [µM] | GI50 (HCT-116 colon) [µM] | GI50 (HS 578T breast) [µM] | GI50 (K-562 leukemia) [µM] | GI50 (M14 melanoma) [µM] | GI50 (NCI-H226 lung) [µM] | GI50 (OVCAR-3 ovarian) [µM] | GI50 (PC-3 prostate) [µM] | GI50 (NCI-H522 lung) [µM]
COC(=O)c1csnn1 | > 100 | > 100 | > 100 | > 100 | > 100 | > 100 | > 100 |  |  |  |  |  |  |  |  |  |  |  |  | 
C[N+](C)(C)CC(=O)N/N=C(/Cc1nc2c3c(ccc2[nH]c1=O)C(=O)c1ccccc1C3=O)C(=O)Nc1ccc(Cl)c(Cl)c1 | > 100 | > 100 | > 100 | > 100 |  | > 100 | > 100 | 87 |  |  |  |  |  |  |  |  |  |  |  | 
CC1(C)SC2C(NC(=O)C(N)c3ccccc3)C(=O)N2C1C(=O)O (configuration not stated) | > 100 | > 100 |  | > 100 |  | > 100 | > 100 | > 100 | > 100 | > 100 |  |  |  |  |  |  |  |  |  | 
CCCCOc1ccc(NC(N)=Nc2ccc(Cl)cc2)cc1 | 23.2 | 12.4 | 11.6 | 11.6 | 29 | 16.5 | 22.7 |  | 21 | 18.3 |  |  |  |  |  |  |  |  |  | 
CCOC(=O)C1=C(C)N(Cc2ccccc2)C(C)=C(C(=O)OCC)C1c1ccccc1O | > 100 | > 100 | > 100 | > 100 | 80.4 | 74.5 | 90.8 | > 100 |  |  |  |  |  |  |  |  |  |  |  | 
COc1ccc(N2C(C)=C(C#N)C34C(=O)N(c5ccccc5)C(=O)C3=C(O)C=CC24O)cc1 (configuration not stated) | 65.8 | 25.5 | > 100 | 38.6 | 35.1 |  | 10.4 | 16.6 | > 100 | 62.5 | 19 | 2.65 | 9.73 | 24.1 | 28.3 | 13.6 | 13.5 | 1.76 | 17.1 | 
CC(C)(C)OC(=O)C#CC[C@H]1CCCC1/C=C/C(O)=C1/C(=O)NC(CCCNC(=O)OC(C)(C)C)C1=O (some centres not stated) | > 100 | 23.9 | 89.3 | > 100 | > 100 | 40.7 | > 100 | > 100 |  |  |  |  |  |  |  |  |  |  |  | 
COc1cc(/C=C2\C(=O)N(C(=O)Cc3ccccc3)N=C2C)ccc1O | > 100 | > 100 | > 100 | > 100 | > 100 | > 100 | > 100 | > 100 |  |  |  |  |  |  |  |  |  |  |  | 
CC(C)C(=O)Nc1nc2nc[nH]c2c(=O)[nH]1 | > 100 | > 100 | > 100 | > 100 | > 100 | > 100 | > 100 | > 100 |  |  |  |  |  |  |  |  |  |  |  | 
CCN(Cc1ccc(F)c(F)c1)c1ccc(CO)c(Cl)c1 | 22.9 | 11.4 | 21.5 | 30.2 |  | 30.2 | 2.25 | 27.5 | 40 | 27.4 | 5.44 | 3.92 | 0.0911 | 12.4 | 1.37 | 14 |  | 0.395 | 12.3 | 13.2
COC(=O)[C@@H](C)C[C@H](Cc1ccccc1)NC(=O)c1nc([C@@H](C[C@H](C(C)C)N(C)C(=O)[C@@H](NC(=O)[C@H]2CCCCN2C)C(C)C)OC(C)=O)sc1C | > 16.7 | > 9.5 | > 16.7 |  | > 16.7 | < 0.00167 |  |  | > 16.7 | > 16.7 | < 0.00167 |  | < 0.00167 | 0.0024 | < 0.00167 |  | 0.0275 | < 0.00167 | < 0.00167 | < 0.00167
COC(=O)CCC1CCc2c(OC)ccc(O)c2C1=O (configuration not stated) | > 100 | > 100 | > 100 | > 100 | 84.1 | > 100 | > 100 |  |  |  |  |  |  |  |  |  |  |  |  | 
Cc1ccc(C(=O)O/N=C2/CCC/C2=C\c2ccccc2)cc1 | > 100 | > 100 | > 100 | > 100 | > 100 | > 100 | > 100 | > 100 |  |  |  |  |  |  |  |  |  |  |  | 
N#CC(C(=O)/C(=N/NC(=O)c1ccccc1O)C(C#N)c1ccc(Cl)cc1)c1ccc(Cl)cc1 (configuration not stated) | 29.9 | 40.2 | 79.1 | 38.8 | 31.8 |  | 35.5 |  |  |  |  |  |  |  |  |  |  |  |  | 
Cc1ccncc1.[O]=[Ge].[O]=[Ge].[O]=[Ge].[O]=[Ge].[O]=[Ge].[O]=[Ge][OH].[O]=[Ge][OH] | > 100 | > 100 | > 100 | > 100 | > 100 |  | > 100 | > 100 |  |  | > 100 | > 100 | > 100 |  | > 100 | > 100 | > 100 | > 100 |  | 
CCCCCCCCCCCCOC(=S)NCCCC | 67.7 | 35 | 41.3 | 79 | 45.1 | 36.5 |  |  |  |  |  |  |  |  |  |  |  |  |  | 
O=C([O-])c1ccccc1Nc1ccccn1.O=C([O-])c1ccccc1Nc1ccccn1.[Ni+2] | > 100 | > 100 | > 100 | > 100 | > 100 | > 100 | > 100 | > 100 |  |  | > 100 | > 100 | > 100 |  | 49.5 | > 100 | 33.9 | > 100 |  | > 100
O=C(CC(=O)CC(O)(C(F)(F)F)C(F)(F)F)CC(O)(C(F)(F)F)C(F)(F)F | > 10 | > 10 | > 10 | > 10 | > 10 | > 10 | > 10 | > 10 | > 10 |  |  |  |  |  |  |  |  |  |  | 
COc1ccccc1NC(=O)C1=C(C)NC(C)=C(C(=O)Nc2ccccc2OC)C1c1ccccc1F | > 100 | > 100 | > 100 | > 100 | > 100 |  | > 100 | > 100 |  |  |  |  |  |  |  |  |  |  |  | 
CN(C(=O)C12C3C4C5C3C1(C(=O)O)C5C42)C(C)(C)C (configuration not stated) | > 100 | > 100 | > 100 | > 100 | > 100 | > 100 | > 100 | > 100 |  |  |  |  |  |  |  |  |  |  |  | 
CCCc1[nH]nc(CCC(=O)N(Cc2ccccc2)Cc2ccccc2)c1CC | > 100 |  | > 100 | > 100 | > 100 | > 100 | > 100 | > 100 |  |  |  |  |  |  |  |  |  |  |  | 
